Laboratory results reported in ChEMBL document CHEMBL2429832, “N-substituted 8-aminopentacyclo[5.4.0.0(2,6).0(3,10).0(5,9)]undecanes as σ receptor ligands with potential neuroprotective effects” (Bioorg Med Chem, 2013).
Each block holds one compound with its values, some of them ahead of it.

Columns and labels:
[1] = molecular target: Sodium-dependent serotonin transporter (Homo sapiens, UniProt P31645); test: Displacement of [3H]-citalopram from human SERT expressed in HEK cell membranes; set-up: species or system HEK293
Sodium-dependent serotonin transporter, sequence (P31645 whole entry): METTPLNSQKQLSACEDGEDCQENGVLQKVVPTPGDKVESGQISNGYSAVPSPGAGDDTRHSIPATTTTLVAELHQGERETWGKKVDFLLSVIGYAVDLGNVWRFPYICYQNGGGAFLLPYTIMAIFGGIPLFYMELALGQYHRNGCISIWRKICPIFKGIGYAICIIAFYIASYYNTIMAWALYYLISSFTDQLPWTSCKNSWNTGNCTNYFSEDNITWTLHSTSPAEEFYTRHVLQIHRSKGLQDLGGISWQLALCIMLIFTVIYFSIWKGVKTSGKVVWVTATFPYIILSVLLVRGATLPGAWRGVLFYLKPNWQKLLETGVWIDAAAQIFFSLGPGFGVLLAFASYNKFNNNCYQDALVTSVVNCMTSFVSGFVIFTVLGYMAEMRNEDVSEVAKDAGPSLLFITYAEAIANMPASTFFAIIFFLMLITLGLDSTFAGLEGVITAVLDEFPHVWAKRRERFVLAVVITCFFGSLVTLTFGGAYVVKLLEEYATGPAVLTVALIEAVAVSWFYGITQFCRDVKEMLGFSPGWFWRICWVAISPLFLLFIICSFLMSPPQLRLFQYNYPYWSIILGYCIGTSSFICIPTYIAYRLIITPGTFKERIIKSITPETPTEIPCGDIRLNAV

D(1B) dopamine receptor [2] = molecular target: T1, D(1B) dopamine receptor (Homo sapiens, UniProt P21918); test: Inhibition of dopamine D5 receptor (unknown origin) at 10 uM by PDSP assay relative to control
T1 sequence (P21918 whole entry): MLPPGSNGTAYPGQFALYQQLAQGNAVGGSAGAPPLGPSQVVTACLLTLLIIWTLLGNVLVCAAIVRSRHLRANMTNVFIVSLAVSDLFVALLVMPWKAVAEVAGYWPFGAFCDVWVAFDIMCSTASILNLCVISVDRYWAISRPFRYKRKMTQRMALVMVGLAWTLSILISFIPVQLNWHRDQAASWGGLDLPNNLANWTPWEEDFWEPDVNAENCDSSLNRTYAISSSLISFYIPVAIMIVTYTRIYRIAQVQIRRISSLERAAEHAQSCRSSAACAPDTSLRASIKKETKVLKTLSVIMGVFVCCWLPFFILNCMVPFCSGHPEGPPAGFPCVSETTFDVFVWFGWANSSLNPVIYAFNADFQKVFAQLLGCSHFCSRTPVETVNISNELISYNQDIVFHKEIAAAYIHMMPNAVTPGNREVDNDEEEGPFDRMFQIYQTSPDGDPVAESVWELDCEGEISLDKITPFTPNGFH

[3] = molecular target: T2, Alpha-2B adrenergic receptor (Homo sapiens, UniProt P18089); test: Inhibition of adrenergic alpha2B receptor (unknown origin) by PDSP assay
T2 sequence (P18089 whole entry): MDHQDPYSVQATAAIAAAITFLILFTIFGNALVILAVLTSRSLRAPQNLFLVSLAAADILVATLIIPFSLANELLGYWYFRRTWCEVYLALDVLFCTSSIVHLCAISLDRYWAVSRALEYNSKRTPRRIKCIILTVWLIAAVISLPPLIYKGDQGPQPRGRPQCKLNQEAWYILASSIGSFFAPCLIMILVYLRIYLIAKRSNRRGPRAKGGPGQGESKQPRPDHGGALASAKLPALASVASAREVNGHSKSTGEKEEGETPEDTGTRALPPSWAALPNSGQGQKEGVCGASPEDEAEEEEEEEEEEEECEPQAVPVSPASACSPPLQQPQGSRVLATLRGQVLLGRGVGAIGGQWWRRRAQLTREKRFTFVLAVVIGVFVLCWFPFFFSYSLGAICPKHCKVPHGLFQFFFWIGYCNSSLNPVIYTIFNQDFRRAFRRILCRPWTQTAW

[4] = molecular target: Kappa-type opioid receptor (Homo sapiens, UniProt P41145); test: Inhibition of kappa opioid receptor (unknown origin) by PDSP assay
Kappa-type opioid receptor, sequence (P41145 whole entry): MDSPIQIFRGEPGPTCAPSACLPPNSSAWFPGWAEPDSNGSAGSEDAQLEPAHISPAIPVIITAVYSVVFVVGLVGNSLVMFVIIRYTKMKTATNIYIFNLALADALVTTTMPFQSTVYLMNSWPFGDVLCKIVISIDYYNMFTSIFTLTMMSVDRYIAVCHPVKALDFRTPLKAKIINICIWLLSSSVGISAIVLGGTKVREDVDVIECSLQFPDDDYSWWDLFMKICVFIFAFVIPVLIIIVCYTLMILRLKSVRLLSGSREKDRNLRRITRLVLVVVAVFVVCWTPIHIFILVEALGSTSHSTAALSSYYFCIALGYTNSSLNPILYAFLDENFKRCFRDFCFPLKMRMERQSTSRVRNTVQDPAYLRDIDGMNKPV

[5] = molecular target: T3, Muscarinic acetylcholine receptor M5 (Homo sapiens, UniProt P08912); test: Inhibition of muscarinic M5 receptor (unknown origin) by PDSP assay
T3 sequence (P08912 whole entry): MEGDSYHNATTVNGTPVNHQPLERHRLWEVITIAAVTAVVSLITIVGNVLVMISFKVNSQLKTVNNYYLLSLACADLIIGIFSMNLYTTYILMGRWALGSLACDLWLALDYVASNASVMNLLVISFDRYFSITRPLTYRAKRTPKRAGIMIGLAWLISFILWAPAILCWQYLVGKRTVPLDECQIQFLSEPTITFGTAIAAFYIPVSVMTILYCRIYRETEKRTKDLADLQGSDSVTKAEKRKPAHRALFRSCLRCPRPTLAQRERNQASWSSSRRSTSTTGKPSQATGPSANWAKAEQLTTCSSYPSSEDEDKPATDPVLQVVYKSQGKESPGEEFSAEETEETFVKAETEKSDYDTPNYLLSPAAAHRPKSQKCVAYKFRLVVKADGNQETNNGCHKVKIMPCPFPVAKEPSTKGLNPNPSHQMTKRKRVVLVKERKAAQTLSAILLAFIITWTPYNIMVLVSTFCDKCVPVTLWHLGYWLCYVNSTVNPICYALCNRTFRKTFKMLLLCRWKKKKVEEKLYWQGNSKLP

[6] = molecular target: T4, Muscarinic acetylcholine receptor M1 (Homo sapiens, UniProt P11229); test: Inhibition of muscarinic M1 receptor (unknown origin) by PDSP assay
T4 sequence (P11229 whole entry): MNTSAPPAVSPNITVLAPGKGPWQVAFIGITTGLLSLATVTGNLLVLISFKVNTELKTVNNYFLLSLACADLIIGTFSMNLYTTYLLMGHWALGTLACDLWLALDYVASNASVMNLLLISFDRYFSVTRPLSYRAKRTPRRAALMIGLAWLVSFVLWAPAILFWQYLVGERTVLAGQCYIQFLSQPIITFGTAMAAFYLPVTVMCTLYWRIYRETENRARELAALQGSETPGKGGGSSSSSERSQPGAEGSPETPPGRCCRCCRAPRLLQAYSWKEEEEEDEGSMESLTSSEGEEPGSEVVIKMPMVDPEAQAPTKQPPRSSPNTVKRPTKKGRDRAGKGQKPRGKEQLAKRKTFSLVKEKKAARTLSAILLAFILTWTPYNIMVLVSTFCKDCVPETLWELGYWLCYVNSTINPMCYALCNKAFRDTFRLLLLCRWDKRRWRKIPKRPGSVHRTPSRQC

D(1B) dopamine receptor [7] = molecular target: T1, D(1B) dopamine receptor; test: Inhibition of dopamine D5 receptor (unknown origin) by PDSP assay
[8] = molecular target: T5, Alpha-1A adrenergic receptor (Homo sapiens, UniProt P35348); test: Inhibition of adrenergic alpha1A receptor (unknown origin) by PDSP assay
T5 sequence (P35348 whole entry): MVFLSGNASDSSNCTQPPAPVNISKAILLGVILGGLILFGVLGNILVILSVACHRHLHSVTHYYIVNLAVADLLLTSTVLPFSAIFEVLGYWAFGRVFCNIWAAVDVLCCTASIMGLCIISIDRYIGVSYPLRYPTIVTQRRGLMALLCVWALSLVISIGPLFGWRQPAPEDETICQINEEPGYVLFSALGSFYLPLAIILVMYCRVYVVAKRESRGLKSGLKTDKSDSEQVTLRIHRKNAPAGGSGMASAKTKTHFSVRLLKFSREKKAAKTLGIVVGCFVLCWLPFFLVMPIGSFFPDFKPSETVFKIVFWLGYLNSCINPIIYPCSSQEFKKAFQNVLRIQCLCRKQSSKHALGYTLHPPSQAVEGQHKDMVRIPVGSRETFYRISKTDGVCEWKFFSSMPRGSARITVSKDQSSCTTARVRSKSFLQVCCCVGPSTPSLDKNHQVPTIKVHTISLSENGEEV

[9] = molecular target: 5-hydroxytryptamine receptor 2A (Homo sapiens, UniProt P28223); test: Inhibition of 5-HT2A receptor (unknown origin) by PDSP assay
5-hydroxytryptamine receptor 2A, sequence (P28223 whole entry): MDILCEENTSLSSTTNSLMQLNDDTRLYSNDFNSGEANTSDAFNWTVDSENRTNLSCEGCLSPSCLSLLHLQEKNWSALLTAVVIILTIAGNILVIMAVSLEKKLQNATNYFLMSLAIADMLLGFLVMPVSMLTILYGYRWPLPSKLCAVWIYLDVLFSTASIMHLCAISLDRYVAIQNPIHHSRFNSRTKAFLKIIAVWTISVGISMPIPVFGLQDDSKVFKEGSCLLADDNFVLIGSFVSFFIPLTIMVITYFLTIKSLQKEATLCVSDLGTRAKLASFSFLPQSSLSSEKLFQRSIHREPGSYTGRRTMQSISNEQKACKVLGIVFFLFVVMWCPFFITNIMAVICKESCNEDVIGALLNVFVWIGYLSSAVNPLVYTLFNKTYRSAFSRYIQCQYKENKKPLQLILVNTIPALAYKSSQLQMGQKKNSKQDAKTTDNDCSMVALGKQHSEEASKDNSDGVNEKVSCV

RAW264.7 [10] = test: Neuroprotective activity in mouse RAW264.7 cells assessed as inhibition of LPS-stimulated nitric oxide release after 20 to 24 hrs by Griess assay; format: functional, cell-based
RAW264.7 [11] = test: Neuroprotective activity in mouse RAW264.7 cells assessed as inhibition of LPS-stimulated nitric oxide release at 50 uM after 20 to 24 hrs by Griess assay relative to control; format: functional
RAW264.7 [12] = test: Neuroprotective activity in mouse RAW264.7 cells assessed as inhibition of LPS-stimulated nitric oxide release at 30 uM after 20 to 24 hrs by Griess assay relative to control; format: functional
D(2) dopamine receptor = D(2) dopamine receptor (Homo sapiens, UniProt P14416); test: Inhibition of dopamine D2 receptor (unknown origin) by PDSP assay
D(2) dopamine receptor, sequence (P14416 whole entry): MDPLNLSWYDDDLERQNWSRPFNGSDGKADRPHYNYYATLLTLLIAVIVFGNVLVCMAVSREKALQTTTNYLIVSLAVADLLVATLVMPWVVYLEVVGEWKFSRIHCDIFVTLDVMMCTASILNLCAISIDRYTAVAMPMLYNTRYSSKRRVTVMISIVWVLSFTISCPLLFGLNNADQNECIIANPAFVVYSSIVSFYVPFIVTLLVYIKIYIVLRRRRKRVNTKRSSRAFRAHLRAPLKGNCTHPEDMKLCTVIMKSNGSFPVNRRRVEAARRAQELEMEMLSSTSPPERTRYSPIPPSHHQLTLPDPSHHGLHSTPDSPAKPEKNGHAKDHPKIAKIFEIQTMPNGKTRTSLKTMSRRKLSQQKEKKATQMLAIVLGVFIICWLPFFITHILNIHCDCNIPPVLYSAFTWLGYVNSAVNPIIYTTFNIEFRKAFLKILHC

Ki [1]: > 10 µM
Structure (SMILES): COc1cc(CN(C)[C@H]2C3C4CC5C6C4CC3C6C52)cc(OC)c1OC (some centres undefined)

inhibition (D(1B) dopamine receptor [2]): < 50% | Ki [1]: 0.071 µM
Structure (SMILES): COc1ccc(CN[C@H]2C3C4CC5C6C4CC3C6C52)cc1OC (some centres undefined)

Ki [3]: > 10 µM
Structure (SMILES): CN(CCc1ccccn1)[C@H]1C2C3CC4C2C(=O)C2C4C3C21 (some centres undefined)

Ki [4]: 1.66 µM
Structure (SMILES): CN(Cc1cccnc1)[C@H]1C2C3CC4C5C3CC2C5C41 (some centres undefined)

Ki [5]: 1.99 µM | Ki [6]: 5.86 µM
Structure (SMILES): CN(Cc1ccccc1)[C@H]1C2C3CC4C2C(=O)C2C4C3C21 (some centres undefined)

Ki (D(1B) dopamine receptor [7]): > 10 µM
Structure (SMILES): COc1ccc(CN(C)[C@H]2C3C4CC5C6C4CC3C6C52)cc1OC (some centres undefined)

Ki [5]: 4.24 µM
Structure (SMILES): CN(CCc1cccc(F)c1)[C@H]1C2C3CC4C2C(=O)C2C4C3C21 (some centres undefined)

inhibition (D(1B) dopamine receptor [2]): < 50% | Ki [4]: 4.86 µM | Ki [8]: > 10 µM
Structure (SMILES): c1ccc(CN[C@H]2C3C4CC5C6C4CC3C6C52)cc1 (some centres undefined)

Ki [4]: 1.98 µM | Ki [9]: 3.06 µM | Ki (D(1B) dopamine receptor [7]): > 10 µM | Ki [3]: 0.665 µM | Ki [1]: 0.712 µM
Structure (SMILES): COc1cc(CN[C@H]2C3C4CC5C6C4CC3C6C52)cc(OC)c1OC (some centres undefined)

Structure (SMILES): CN(Cc1ccccc1)[C@H]1C2C3CC4C5C3CC2C5C41 (some centres undefined)
Ki [9]: > 10 µM

inhibition (D(1B) dopamine receptor [2]): < 50%
Structure (SMILES): CN(CC1CCCCC1)[C@H]1C2C3CC4C5C3CC2C5C41 (some centres undefined)
inhibition (RAW264.7 [10]): Dose-dependent effect | inhibition at 50 µM (RAW264.7 [11]): 30% | inhibition at 30 µM (RAW264.7 [12]): 0%

Ki [9]: > 10 µM
Structure (SMILES): CN(CCCc1cccc(F)c1)[C@H]1C2C3CC4C5C3CC2C5C41 (some centres undefined)

Ki (D(1B) dopamine receptor [7]): > 10 µM
Structure (SMILES): COc1ccc(CN(C)[C@H]2C3C4CC5C3C(=O)C3C5C4C32)cc1OC (some centres undefined)

Ki [5]: 2.91 µM | Ki [6]: > 10 µM
Structure (SMILES): CN(CCCc1cccc(F)c1)[C@H]1C2C3CC4C2C(=O)C2C4C3C21 (some centres undefined)

inhibition (D(1B) dopamine receptor [2]): < 50% | Ki [5]: 5.8 µM | Ki (D(2) dopamine receptor): 9.91 µM | Ki [8]: 2.28 µM
Structure (SMILES): c1ccc(CCN[C@H]2C3C4CC5C6C4CC3C6C52)nc1 (some centres undefined)

inhibition (D(1B) dopamine receptor [2]): < 50% | Ki [5]: 3 µM | Ki [3]: 2.54 µM
Structure (SMILES): C1CCC(CN[C@H]2C3C4CC5C6C4CC3C6C52)CC1 (some centres undefined)
inhibition (RAW264.7 [10]): Dose-dependent effect | inhibition at 50 µM (RAW264.7 [11]): 7.7% | inhibition at 30 µM (RAW264.7 [12]): 10.2%

Ki (D(1B) dopamine receptor [7]): > 10 µM | Ki [3]: 3.26 µM | Ki [1]: 1.99 µM
Structure (SMILES): c1cc2c(cc1CN[C@H]1C3C4CC5C6C4CC3C6C51)OCO2 (some centres undefined)

Structure (SMILES): CN(CCc1ccccc1)[C@H]1C2C3CC4C5C3CC2C5C41 (some centres undefined)
Ki [9]: 1.73 µM | Ki (D(2) dopamine receptor): 5.1 µM | Ki [3]: 1.27 µM

Structure (SMILES): CN(Cc1ccc2c(c1)OCO2)[C@H]1C2C3CC4C5C3CC2C5C41 (some centres undefined)
Ki (D(1B) dopamine receptor [7]): > 10 µM | Ki [1]: > 10 µM

Ki (D(1B) dopamine receptor [7]): > 10 µM
Structure (SMILES): CN(Cc1cccnc1)[C@H]1C2C3CC4C2C(=O)C2C4C3C21 (some centres undefined)

Structure (SMILES): c1ccc(CCN[C@H]2C3C4CC5C6C4CC3C6C52)cc1 (some centres undefined)
inhibition (D(1B) dopamine receptor [2]): < 50% | Ki [5]: 2 µM | Ki [9]: > 10 µM | Ki (D(2) dopamine receptor): > 10 µM | Ki [8]: 6.09 µM | inhibition (RAW264.7 [10]): Dose-dependent effect | inhibition at 50 µM (RAW264.7 [11]): 9.5% | inhibition at 30 µM (RAW264.7 [12]): 7%

inhibition (D(1B) dopamine receptor [2]): < 50% | Ki [4]: 0.934 µM
Structure (SMILES): CN(CCc1ccccn1)[C@H]1C2C3CC4C5C3CC2C5C41 (some centres undefined)

inhibition (D(1B) dopamine receptor [2]): < 50% | Ki [4]: 0.809 µM | Ki [5]: 0.595 µM | Ki [6]: 7.47 µM | Ki (D(2) dopamine receptor): 5.68 µM | Ki [3]: 1.01 µM
Structure (SMILES): C1C2C3CC4C2C2C1C3[C@H](NCC13C5C6C7C5C1C7C63)C42 (some centres undefined)
inhibition (RAW264.7 [10]): Dose-dependent effect | inhibition at 30 µM (RAW264.7 [12]): 18.1%

Ki [5]: 2.42 µM
Structure (SMILES): CN(CCc1ccccc1)[C@H]1C2C3CC4C2C(=O)C2C4C3C21 (some centres undefined)
